Each compound was assayed on HBV rcDNA (assay: HepDE19 assay with bDNA quantitation of HBV rcDNA). Details: HepDE19 cells, 7 day incubation, rcDNA measured by Quantigene 2.0 bDNA assay, top concentration 25 μM; read-out: DE-19bDNA EC50.
Assay type: cell-based, hepatitis B virus (HBV)
Method in brief: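 HepDE19 cells were switched to tetracycline-free medium and exposed to compound (0.5% DMSO final) for 7 days at 37° C. rcDNA was then quantified by bDNA with an HBV-specific probe set. In parallel, viability was read as ATP content (CellTiter-Glo) after 4 days on replicate plates.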

| SMILES | EC50 |
| --- | --- |
| CC(c1c[nH]c(=O)c2cc(F)c(F)cc12)N(C)C(=O)c1ccc(Cl)c(F)c1 (single isomer, unassigned) [Compound 121, 4-Chloro-N-(1-(6,7-difluoro-1-oxo-1,2-dihydroisoquinolin-4-yl)ethyl)-3-fluoro-N-methylbenzamide] | 5680 nM |
| CC(c1c[nH]c(=O)c2cc(F)c(F)cc12)N(C)C(=O)c1ccc(Cl)c(F)c1 (single isomer, unassigned) [Compound 122, 4-Chloro-N-(1-(6,7-difluoro-1-oxo-1,2-dihydroisoquinolin-4-yl)ethyl)-3-fluoro-N-methylbenzamide] | 40 nM |
| CC(c1c[nH]c(=O)c2cc(F)c(F)cc12)N(C)C(=O)c1cc(F)c(F)c(F)c1 (single isomer, unassigned) [Compound 123, N-(1-(6,7-Difluoro-1-oxo-1,2-dihydroisoquinolin-4-yl)ethyl)-3,4,5-trifluoro-N-methylbenzamide] | 22400 nM |
| CC(c1c[nH]c(=O)c2cc(F)c(F)cc12)N(C)C(=O)c1cc(F)c(F)c(F)c1 (single isomer, unassigned) [Compound 124, N-(1-(6,7-Difluoro-1-oxo-1,2-dihydroisoquinolin-4-yl)ethyl)-3,4,5-trifluoro-N-methylbenzamide] | 190 nM |
| CC(c1c[nH]c(=O)c2cc(F)c(F)cc12)N(C)C(=O)c1cccc(C(F)F)c1 (single isomer, unassigned) [Compound 125, N-(1-(6,7-Difluoro-1-oxo-1,2-dihydroisoquinolin-4-yl)ethyl)-3-(difluoromethyl)-N-methylbenzamide] | 24800 nM |
| CC(c1c[nH]c(=O)c2cc(F)c(F)cc12)N(C)C(=O)c1cccc(C(F)F)c1 (single isomer, unassigned) [Compound 126, N-(1-(6,7-Difluoro-1-oxo-1,2-dihydroisoquinolin-4-yl)ethyl)-3-(difluoromethyl)-N-methylbenzamide] | 100 nM |
| CC(c1c[nH]c(=O)c2cc(F)c(F)cc12)N(C)C(=O)c1ccc(C(F)(F)F)cc1 (single isomer, unassigned) [Compound 129, N-(1-(6,7-Difluoro-1-oxo-1,2-dihydroisoquinolin-4-yl)ethyl)-N-methyl-4-(trifluoromethyl) benzamide] | 6460 nM |
| CC(c1c[nH]c(=O)c2cc(F)c(F)cc12)N(C)C(=O)c1ccc(C(F)(F)F)cc1 (single isomer, unassigned) [Compound 130, N-(1-(6,7-Difluoro-1-oxo-1,2-dihydroisoquinolin-4-yl)ethyl)-N-methyl-4-(trifluoromethyl) benzamide] | 20 nM |
| CC(c1c[nH]c(=O)c2cc(F)c(F)cc12)N(C)C(=O)c1ccc(F)c(C(F)F)c1 (single isomer, unassigned) [Compound 133, N-(1-(6,7-Difluoro-1-oxo-1,2-dihydroisoquinolin-4-yl)ethyl)-3-(difluoromethyl)-4-fluoro-N-methylbenzamide] | 14600 nM |
| CC(c1c[nH]c(=O)c2cc(F)c(F)cc12)N(C)C(=O)c1ccc(F)c(C(F)F)c1 (single isomer, unassigned) [Compound 134, N-(1-(6,7-Difluoro-1-oxo-1,2-dihydroisoquinolin-4-yl)ethyl)-3-(difluoromethyl)-4-fluoro-N-methylbenzamide] | 60 nM |
| CC(c1c[nH]c(=O)c2cc(F)c(F)cc12)N(C)C(=O)c1ccc(F)c(Cl)c1 (single isomer, unassigned) [Compound 135, 3-Chloro-N-(1-(6,7-difluoro-1-oxo-1,2-dihydroisoquinolin-4-yl)ethyl)-4-fluoro-N-methylbenzamide] | 9610 nM |
| CC(c1c[nH]c(=O)c2cc(F)c(F)cc12)N(C)C(=O)c1ccc(F)c(Cl)c1 (single isomer, unassigned) [Compound 136, 3-Chloro-N-(1-(6,7-difluoro-1-oxo-1,2-dihydroisoquinolin-4-yl)ethyl)-4-fluoro-N-methylbenzamide] | 170 nM |
| CC(c1c[nH]c(=O)c2cc(F)c(F)cc12)N(C)C(=O)c1ccc(F)c(F)c1 (single isomer, unassigned) [Compound 137, N-(1-(6,7-Difluoro-1-oxo-1,2-dihydroisoquinolin-4-yl)ethyl)-3,4-difluoro-N-methylbenzamide] | 22400 nM |
| CC(c1c[nH]c(=O)c2cc(F)c(F)cc12)N(C)C(=O)c1ccc(F)c(F)c1 (single isomer, unassigned) [Compound 138, N-(1-(6,7-Difluoro-1-oxo-1,2-dihydroisoquinolin-4-yl)ethyl)-3,4-difluoro-N-methylbenzamide] | 450 nM |
| CC(c1c[nH]c(=O)c2cc(F)c(F)cc12)N(C)C(=O)c1ccc2c(ccn2C)c1 (single isomer, unassigned) [Compound 139, N-(1-(6,7-difluoro-1-oxo-1,2-dihydroisoquinolin-4-yl)ethyl)-N,1-dimethyl-1H-indole-5-carboxamide] | > 25000 nM |
| CC(c1c[nH]c(=O)c2cc(F)c(F)cc12)N(C)C(=O)c1ccc2c(ccn2C)c1 (single isomer, unassigned) [Compound 140, N-(1-(6,7-difluoro-1-oxo-1,2-dihydroisoquinolin-4-yl)ethyl)-N,1-dimethyl-1H-indole-5-carboxamide] | 120 nM |
| CC(c1c[nH]c(=O)c2cc(F)c(F)cc12)N(C)C(=O)c1ccc2ccn(C)c2c1 (single isomer, unassigned) [Compound 141, N-(1-(6,7-Difluoro-1-oxo-1,2-dihydroisoquinolin-4-yl)ethyl)-N,1-dimethyl-1H-indole-6-carboxamide] | > 25000 nM |
| CC(c1c[nH]c(=O)c2cc(F)c(F)cc12)N(C)C(=O)c1ccc2ccn(C)c2c1 (single isomer, unassigned) [Compound 142, N-(1-(6,7-Difluoro-1-oxo-1,2-dihydroisoquinolin-4-yl)ethyl)-N,1-dimethyl-1H-indole-6-carboxamide] | 390 nM |
| CC(c1cn(C)c(=O)c2cc(F)c(F)cc12)N(C)C(=O)c1ccc(Br)c(F)c1 (single isomer, unassigned) [Compound 161, 4-bromo-N-(1-(6,7-difluoro-2-methyl-1-oxo-1,2-dihydroisoquinolin-4-yl)ethyl)-3-fluoro-N-methylbenzamide] | 3090 nM |
| CC(c1cn(C)c(=O)c2cc(F)c(F)cc12)N(C)C(=O)c1ccc(Br)c(F)c1 (single isomer, unassigned) [Compound 162, 4-bromo-N-(1-(6,7-difluoro-2-methyl-1-oxo-1,2-dihydroisoquinolin-4-yl)ethyl)-3-fluoro-N-methylbenzamide] | 30 nM |
| CC(c1cn(C)c(=O)c2cc(F)c(F)cc12)N(C)C(=O)c1ccc(C(F)(F)F)c(F)c1 (single isomer, unassigned) [Compound 166, N-(1-(6,7-difluoro-2-methyl-1-oxo-1,2-dihydroisoquinolin-4-yl)ethyl)-3-fluoro-N-methyl-4-(trifluoromethyl)benzamide] | 3320 nM |
| CC(c1cn(C)c(=O)c2cc(F)c(F)cc12)N(C)C(=O)c1ccc(Br)cc1 (single isomer, unassigned) [Compound 167, 4-bromo-N-(1-(6,7-difluoro-2-methyl-1-oxo-1,2-dihydroisoquinolin-4-yl)ethyl)-N-methylbenzamide] | 2320 nM |
| CC(c1cn(C)c(=O)c2cc(F)c(F)cc12)N(C)C(=O)c1ccc(Br)cc1 (single isomer, unassigned) [Compound 168, 4-bromo-N-(1-(6,7-difluoro-2-methyl-1-oxo-1,2-dihydroisoquinolin-4-y1)ethyl)-N-methylbenzamide] | 30 nM |

Same assay, conditions: Hepatitis B virus, HepDE19, 168 h, HepDE19 cells, 7 day incubation, rcDNA measured by Quantigene 2.0 bDNA assay, top concentration 25 μM; read-out: DE-19bDNA EC50

| SMILES | EC50 |
| --- | --- |
| CC(c1cn(C)c(=O)c2cc(F)c(F)cc12)N(C)C(=O)c1ccc(C(F)(F)F)c(F)c1 (single isomer, unassigned) [Compound 165, N-(1-(6,7-difluoro-2-methyl-1-oxo-1,2-dihydroisoquinolin-4-yl)ethyl)-3-fluoro-N-methyl-4-(trifluoromethyl)benzamide] | 2340 nM |

Same assay, conditions: read-out: DE-19bDNA EC50; HepDE19 cells, 7 day incubation, rcDNA measured by Quantigene 2.0 bDNA assay, top concentration 25 μM

| SMILES | EC50 |
| --- | --- |
| CC(c1c[nH]c(=O)c2cc(F)c(F)cc12)N(C)C(=O)c1ccccc1 (single isomer, unassigned) [Compound 127, N-(1-(6,7-Difluoro-1-oxo-1,2-dihydroisoquinolin-4-yl)ethyl)-N-methylbenzamide] | 3530 nM |
| CC(c1c[nH]c(=O)c2cc(F)c(F)cc12)N(C)C(=O)c1ccccc1 (single isomer, unassigned) [Compound 128, N-(1-(6,7-Difluoro-1-oxo-1,2-dihydroisoquinolin-4-yl)ethyl)-N-methylbenzamide] | > 25000 nM |
| CC(c1c[nH]c(=O)c2cc(F)c(F)cc12)N(C)C(=O)c1ccc(Cl)cc1 (single isomer, unassigned) [Compound 131, 4-Chloro-N-(1-(6,7-difluoro-1-oxo-1,2-dihydroisoquinolin-4-yl)ethyl)-N-methylbenzamide] | 14700 nM |
| CC(c1c[nH]c(=O)c2cc(F)c(F)cc12)N(C)C(=O)c1ccc(Cl)cc1 (single isomer, unassigned) [Compound 132, 4-Chloro-N-(1-(6,7-difluoro-1-oxo-1,2-dihydroisoquinolin-4-yl)ethyl)-N-methylbenzamide] | 60 nM |
| COc1ncc(C(C)N(C)C(=O)c2ccc(Br)cc2)c2cc(F)c(F)cc12 (single isomer, unassigned) [Compound 163, 4-Bromo-N-(1-(6,7-difluoro-1-methoxyisoquinolin-4-yl)ethyl)-N-methylbenzamide] | 440 nM |
| COc1ncc(C(C)N(C)C(=O)c2ccc(Br)cc2)c2cc(F)c(F)cc12 (single isomer, unassigned) [Compound 164, 4-Bromo-N-(1-(6,7-difluoro-1-methoxyisoquinolin-4-yl)ethyl)-N-methylbenzamide] | 17200 nM |

Reference: US20230295115A1, “SUBSTITUTED ISOQUINOLINYLMETHYL AMIDES, ANALOGUES THEREOF, AND METHODS USING SAME” (priority 2020, published 2023)
